Measured values as given in patent publication US20230255912A1, “COMPOSITIONS AND METHODS FOR TREATING CRP-MEDIATED DISEASES” (Ponce de Leon Health Designated Activity Company, priority 2020, published 2023).
Like-named read-outs stand apart in the source and are kept apart here.

Tests used:
CRP = test: Blood chemistry of a human volunteer: CRP; assay type: in vivo; conditions: for CRP: 1,000 mg Ca-AKG + 900 mcg Vitamin A daily, oral, baseline 4.9
Excerpt: METHOD EXAMPLE. Blood chemistry. […] The following results were obtained:

[1] = for Total/HDL: baseline 2.9; for Alkaline phosphatase: baseline 44; for HDL: baseline 64; for Triglycerides: baseline 85; for Glucose: baseline 95; for Cholesterol: baseline 184; for Platelets: baseline 359
Excerpt: METHOD EXAMPLE. Blood chemistry. […] Prior to the start of dosing, a baseline blood draw is obtained for hematology, chemistry, CRP measurement, and metabolite analyses. After the start of dosing, blood draws are obtained monthly.

inflammatory cytokines = conditions: female mice, 29 months
Experimental: METHOD EXAMPLE. Cytokine Levels in Aged Mice. Female mice (18 months) are divided into treatment and untreated groups. Baseline levels of 30 inflammatory cytokines are measured. […] Following treatment, levels of 30 inflammatory cytokines are measured from serum samples and compared to untreated controls.

[2] = compared to aged controls, p<0.05

In the case of `O=C(O)CCC(=O)C(=O)O` [AKG, 2-oxopentanedioic acid], the “lowering of CRP” value (CRP; human volunteer, baseline vs 12 months) is reported as “more than 10 fold”, the levels of triglycerides ([1]; human volunteer, vs baseline) is reported as “improves” and the “other important biological markers, such as platelets, glucose, PSA” value ([1]; human volunteer, vs baseline) is reported as “does not adversely affect”.
With `O.O=C([O-])CCC(=O)C(=O)[O-].[Ca+2]` [Ca-AKG, calcium alpha-ketoglutarate monohydrate] the CRP (CRP; 10 Months) was 2.5 mg/L, the CRP (CRP; 12 Months) was 0.4 mg/L and the Total/HDL ([1]; 10 Months) was 2.4. The Alkaline phosphatase ([1]; 10 Months) was 40 U/L, the HDL ([1]; 10 Months) was 76 mg/dL and the Triglycerides ([1]; 10 Months) was 49 mg/dL. It also gave a Glucose ([1]; 10 Months) of 104 mg/dL, a Cholesterol ([1]; 10 Months) of 184 mg/dL and a Platelets ([1]; 10 Months) of 392 K/CUMM. The Total/HDL ([1]; 12 Months) was 2.4, the Alkaline phosphatase ([1]; 12 Months) was 30 U/L and the HDL ([1]; 12 Months) was 76 mg/dL. The Triglycerides ([1]; 12 Months) was 52 mg/dL, the Glucose ([1]; 12 Months) was 99 mg/dL and the Cholesterol ([1]; 12 Months) was 181 mg/dL. For the same molecule, the Platelets ([1]; 12 Months) was 332 K/CUMM, the “level of IL-3” value (inflammatory cytokines; [2]) was “significantly lower” and the “level of IL-7” value (inflammatory cytokines; [2]) was “significantly lower”. The “level of MIP-1β” value (inflammatory cytokines; [2]) was “significantly lower”, the “level of TNF-α” value (inflammatory cytokines; [2]) was “significantly lower” and the “levels of IL-3, IL-7, TNF-α, and MIP-1β compared to the 18 month baseline” value (inflammatory cytokines; treatment group vs 18 month baseline) was “statistically indistinguishable”.
